Results: patent US10722587B2, “Composition for intracellular delivery containing adenovirus protein VI-derived peptide and anticancer pharmaceutical composition containing same” (priority 2015, dated 2020)

System: Hela cell line
Test: MTT assay, oncolytic capability and cytotoxicity
Type: cell-based, human
Settings: 4 days
Procedure: In this example, to confirm the adenoviral proliferation capability and oncolytic capability of Ad pDNA-polymer-peptide complexes, a complex was manufactured using polymer PAM-ABP and d pDNA containing viral DNA of H-Rd19-k35/DCN/shcMet, which is a tumor-selective oncolytic adenovirus expressing adenovirus DNA such as decorin (DCN) and shcMet. A human uterine cancer cell line, Hela cell line, was inoculated into a 12-well plate, and after 24 hours, treated with naked Ad pDNA, Ad pDNA/PAM-ABP, Ad pDNA/PAM-ABP/peptide complexes in which 6 types of peptides such as mVI, mVI-TAT, mVI-TAT-A, mVI-G-TAT-A, mVI-A-TAT and mVI-G-A-TAT were conjugated with Ad pDNA/PAM-ABP, and controls such as VI-9R and a complex with a TAT peptide. In addition, to verify cytotoxicity, the cells were treated with PAM-ABP or a peptide alone. Four days after the treatment, the culture solution was collected, and the number of adenovirus particles was detected using Q-PCR, and to verify oncolytic capability, 2 mg/ml of 3-(4,5-dimethylthiazol-2-yl)-2,5-diphenyl-tetrazolium bromide (MTT; Sigma Aldrich) in PBS was added at 200 μL to each well of the supernatant-removed plate, and cultured at 37° C. for 4 hours. Afterward, the supernatant was removed, the precipitate was dissolved in 1.0 ml dimethyl sulfoxide, the absorbance was analyzed by reading the plate at 540 nm on a microplate reader, and a non-treated cell group was classified as a negative control.

## CC[C@H](C)[C@H](NC(=O)CNC(=O)[C@H](CO)NC(=O)[C@H](Cc1c[nH]c2ccccc12)NC(=O)[C@H](CC(C)C)NC(=O)[C@H](CO)NC(=O)CNC(=O)[C@H](Cc1c[nH]c2ccccc12)NC(=O)[C@@H](N)CO)C(=O)N[C@@H](CCCCN)C(=O)N[C@@H](CC(N)=O)C(=O)N[C@@H](Cc1ccccc1)C(=O)NCC(=O)N[C@@H](CCCNC(=N)N)C(=O)N[C@@H](CCCNC(=N)N)C(=O)N[C@@H](CCCNC(=N)N)C(=O)N[C@@H](CCCNC(=N)N)C(=O)N[C@@H](CCCNC(=N)N)C(=O)N[C@@H](CCCNC(=N)N)C(=O)N[C@@H](CCCNC(=N)N)C(=O)N[C@@H](CCCNC(=N)N)C(=O)N[C@@H](CCCNC(=N)N)C(=O)O [VI-9R]
  cytotoxicity of peptide alone: high cytotoxicity

## CC[C@H](C)[C@H](NC(=O)CNC(=O)[C@H](CO)NC(=O)[C@H](Cc1c[nH]c2ccccc12)NC(=O)[C@H](CC(C)C)NC(=O)[C@H](CO)NC(=O)CNC(=O)[C@H](Cc1c[nH]c2ccccc12)NC(=O)[C@H](CO)NC(=O)[C@H](Cc1ccccc1)NC(=O)[C@H](C)N)C(=O)N[C@@H](CCCCN)C(=O)N[C@@H](CC(N)=O)C(=O)N[C@@H](Cc1ccccc1)C(=O)NCC(=O)N[C@@H](C)C(=O)N[C@@H](CC(C)C)C(=O)N[C@@H](C)C(=O)N[C@@H](CCC(=O)O)C(=O)N[C@@H](CCCNC(=N)N)C(=O)N[C@@H](CCCCN)C(=O)N[C@@H](CCCCN)C(=O)N[C@@H](CCCNC(=N)N)C(=O)N[C@@H](CCCNC(=N)N)C(=O)N[C@@H](CCC(N)=O)C(=O)N[C@@H](CCCNC(=N)N)C(=O)N[C@@H](CCCNC(=N)N)C(=O)N[C@@H](CCCNC(=N)N)C(=O)O [mVI-A-TAT]
  cytotoxicity of peptide alone: relatively high cytotoxicity

## CC[C@H](C)[C@H](NC(=O)CNC(=O)[C@H](CO)NC(=O)[C@H](Cc1c[nH]c2ccccc12)NC(=O)[C@H](CC(C)C)NC(=O)[C@H](CO)NC(=O)CNC(=O)[C@H](Cc1c[nH]c2ccccc12)NC(=O)[C@H](CO)NC(=O)[C@H](Cc1ccccc1)NC(=O)[C@H](C)N)C(=O)N[C@@H](CCCCN)C(=O)N[C@@H](CC(N)=O)C(=O)N[C@@H](Cc1ccccc1)C(=O)NCC(=O)N[C@@H](Cc1ccccc1)C(=O)N[C@@H](CC(C)C)C(=O)NCC(=O)N[C@@H](C)C(=O)N[C@@H](CC(C)C)C(=O)N[C@@H](C)C(=O)N[C@@H](CCC(=O)O)C(=O)N[C@@H](CCCNC(=N)N)C(=O)N[C@@H](CCCCN)C(=O)N[C@@H](CCCCN)C(=O)N[C@@H](CCCNC(=N)N)C(=O)N[C@@H](CCCNC(=N)N)C(=O)N[C@@H](CCC(N)=O)C(=O)N[C@@H](CCCNC(=N)N)C(=O)N[C@@H](CCCNC(=N)N)C(=O)N[C@@H](CCCNC(=N)N)C(=O)O [mVI-G-A-TAT]
  cytotoxicity of peptide alone: relatively high cytotoxicity

## CC[C@H](C)[C@H](NC(=O)CNC(=O)[C@H](CO)NC(=O)[C@H](Cc1c[nH]c2ccccc12)NC(=O)[C@H](CC(C)C)NC(=O)[C@H](CO)NC(=O)CNC(=O)[C@H](Cc1c[nH]c2ccccc12)NC(=O)[C@H](CO)NC(=O)[C@H](Cc1ccccc1)NC(=O)[C@H](C)N)C(=O)N[C@@H](CCCCN)C(=O)N[C@@H](CC(N)=O)C(=O)N[C@@H](Cc1ccccc1)C(=O)NCC(=O)N[C@@H](Cc1ccccc1)C(=O)N[C@@H](CC(C)C)C(=O)NCC(=O)N[C@@H](CCCNC(=N)N)C(=O)N[C@@H](CCCCN)C(=O)N[C@@H](CCCCN)C(=O)N[C@@H](CCCNC(=N)N)C(=O)N[C@@H](CCCNC(=N)N)C(=O)N[C@@H](CCC(N)=O)C(=O)N[C@@H](CCCNC(=N)N)C(=O)N[C@@H](CCCNC(=N)N)C(=O)N[C@@H](CCCNC(=N)N)C(=O)N[C@@H](C)C(=O)N[C@@H](CC(C)C)C(=O)N[C@@H](C)C(=O)N[C@@H](CCC(=O)O)C(=O)O [mVI-G-TAT-A]
  cytotoxicity of peptide alone: relatively high cytotoxicity

## CC[C@H](C)[C@H](NC(=O)CNC(=O)[C@H](CO)NC(=O)[C@H](Cc1c[nH]c2ccccc12)NC(=O)[C@H](CC(C)C)NC(=O)[C@H](CO)NC(=O)CNC(=O)[C@H](Cc1c[nH]c2ccccc12)NC(=O)[C@H](CO)NC(=O)[C@H](Cc1ccccc1)NC(=O)[C@H](C)N)C(=O)N[C@@H](CCCCN)C(=O)N[C@@H](CC(N)=O)C(=O)N[C@@H](Cc1ccccc1)C(=O)NCC(=O)O [mVI]
  cytotoxicity of peptide alone: relatively high cytotoxicity
